Source: US8026218B2, “Bifunctional analgesic compounds for opioid receptor agonists and neurokinin-1 receptor antagonists” (The University of Arizona, priority 2006, dated 2011)
Read-outs that look alike come from different tables or passages of the source. Peptide text beside a SMILES is read from it.

Key:
rat NK1 (rNK1) receptor = target: T1, rat NK1 (rNK1) receptor (Rattus norvegicus, UniProt P14600); assay: Radioligand competition binding, [3H]substance P, rNK1/CHO membranes; details: for IC50: LogIC50, rNK1, [3H]Substance P, logarithm of IC50 (negative)
T1 construct: expressed in transfected cells; host or cells: CHO (rNK-1/CHO cell line from Dr. James Krause)
T1 sequence (P14600 whole entry): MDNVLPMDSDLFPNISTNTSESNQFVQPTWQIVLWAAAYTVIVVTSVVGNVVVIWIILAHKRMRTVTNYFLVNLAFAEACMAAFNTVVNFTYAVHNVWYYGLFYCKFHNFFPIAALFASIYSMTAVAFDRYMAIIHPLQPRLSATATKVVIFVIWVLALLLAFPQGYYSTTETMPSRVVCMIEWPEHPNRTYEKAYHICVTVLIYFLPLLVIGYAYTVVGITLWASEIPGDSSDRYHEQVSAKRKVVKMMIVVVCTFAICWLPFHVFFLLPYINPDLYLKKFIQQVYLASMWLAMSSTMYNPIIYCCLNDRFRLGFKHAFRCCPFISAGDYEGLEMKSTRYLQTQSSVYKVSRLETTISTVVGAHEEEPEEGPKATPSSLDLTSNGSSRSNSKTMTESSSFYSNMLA

[1] = target: T2, human NK1 receptor (hNK1) (Homo sapiens, UniProt P25103); assay: Radioligand competition binding, [3H]-Substance P, hNK1
T2 construct: expressed in transfected cells
T2 sequence (P25103 whole entry): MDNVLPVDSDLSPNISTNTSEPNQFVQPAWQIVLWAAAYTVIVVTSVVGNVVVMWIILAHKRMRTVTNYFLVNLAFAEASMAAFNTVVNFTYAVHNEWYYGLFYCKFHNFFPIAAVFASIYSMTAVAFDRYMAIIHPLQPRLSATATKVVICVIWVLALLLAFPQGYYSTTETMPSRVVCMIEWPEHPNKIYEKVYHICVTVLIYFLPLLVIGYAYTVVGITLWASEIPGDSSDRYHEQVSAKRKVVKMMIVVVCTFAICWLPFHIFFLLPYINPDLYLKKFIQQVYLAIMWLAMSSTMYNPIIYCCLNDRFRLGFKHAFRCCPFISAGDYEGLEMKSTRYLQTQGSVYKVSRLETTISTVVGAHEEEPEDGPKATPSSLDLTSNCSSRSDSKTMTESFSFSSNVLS

[2] = Octanol/saline distribution (logD7.4); type: physicochemical; details: 0.05 N HEPES buffer in 0.1 N NaCl
Procedure: HEPES buffer (0.05 M HEPES buffer in 0.1 M NaCl, pH 7.4, 500 μL) was added to 2 mg of compound and mixed with 500 μL of 1-octanol. The sample was shaken at r.t. for 12 h to allow equilibrating. The sample was centrifuged at 6500 rpm in a VanGuard V6500 (GlaxoSmithKline, Research Triangle Park, N.C.) for 15 min. The layers were separated and each layer was centrifuged once again. The compound concentrations of obtained layers were analyzed by HPLC (30-70% of acetonitrile containing 0.1% TFA within 20 min and up to 95% within additional 5 min, 1 mL/min, 230 nm, Vydac 218TP104 C-18 column). The logarithm of 1-octanol/saline distribution (logD7.4) was calculated as the ratio of compound concentration in the 1-octanol and saline phases.
Octanol/saline distribution (logD7.4) (Yamamoto, 2007, J. Med. Chem., submitted). HEPES buffer (0.05 M HEPES buffer in 0.1 M NaCl, pH 7.4, 500 μL) was added to 2 mg of compound and mixed with 500 μL of 1-octanol. The sample was shaken at r.t. for 12 h to allow equilibrating. The sample was centrifuged at 6500 rpm in a VanGuard V6500 (GlaxoSmithKline, Research Triangle Park, N.C.) for 15 min. The layers were separated and each layer was centrifuged once again. The compound concentrations in the obtained layers were analyzed by HPLC (30-70% of acetonitrile containing 0.1% TFA within 20 min and up to 95% within additional 5 min, 1 mL/min, 230 nm, Vydac 218TP104 C-18 column). The logarithm of 1-octanol/saline distribution (logD7.4) was calculated as the ratio of compound concentration in the 1-octanol and saline phases.

[3] = In vitro stability in rat plasma at 37° C.; type: in vitro ADME; details: rat, rat plasma, read-out: half life (T1/2) in rat plasma (converted)
Procedure: The derivative compounds were tested for their metabolite stability. The compounds were incubated in rat plasma at 37° C., and aliquots were withdrawn at various time points and analyzed by HPLC to determine the concentration of remaining compound derivatives (FIGS. 15-16, 36, and 47-48).
In Vitro Stability of compound derivatives in Rat Plasm (Yamamoto, 2007, J. Am. Chem. Soc. submitted). Stock solution of compounds (50 mg/mL in DMSO) were diluted 1000-fold into rat plasma (Lot 24927, Pel-Freez Biologicals, Rogers, Ak.) to result in an incubation concentration of 50 μg/mL. All samples were incubated at 37° C. for 6 h, and 200 μL of aliquots were withdrawn at 1 h, 2 h, 4 h and 6 h. […] The samples were run in triplicate. Discussion.

[4] = target: T3, rat μ opioid receptors (rMOR) (Rattus norvegicus, UniProt P33535); assay: Radioligand competition binding, [3H]DAMGO, rMOR membranes
T3 construct: expressed in transfected cells; host or cells: HN9.10 neuroblastoma cell line, pCDNA3, neomycin-selected clones
T3 sequence (P33535 whole entry): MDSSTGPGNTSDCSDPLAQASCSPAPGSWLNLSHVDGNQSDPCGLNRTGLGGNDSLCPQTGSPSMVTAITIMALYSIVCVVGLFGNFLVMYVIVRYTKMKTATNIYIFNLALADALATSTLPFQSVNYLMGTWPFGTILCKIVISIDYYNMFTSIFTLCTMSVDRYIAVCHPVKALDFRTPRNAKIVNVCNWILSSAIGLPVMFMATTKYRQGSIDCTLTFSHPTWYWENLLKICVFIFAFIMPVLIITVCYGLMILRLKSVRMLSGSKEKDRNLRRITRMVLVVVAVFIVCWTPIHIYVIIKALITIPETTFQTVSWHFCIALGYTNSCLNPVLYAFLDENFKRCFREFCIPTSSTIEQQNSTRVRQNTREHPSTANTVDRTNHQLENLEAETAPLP

δ opioid receptors (MVD) = target: T4, δ opioid receptors (MVD) (Mus musculus, UniProt P32300); assay: Mouse isolated vas deferens (MVD) assay, opioid agonist
T4 construct: from tissue; host or cells: mouse (ICR) isolated vas deferens
T4 sequence (P32300 whole entry): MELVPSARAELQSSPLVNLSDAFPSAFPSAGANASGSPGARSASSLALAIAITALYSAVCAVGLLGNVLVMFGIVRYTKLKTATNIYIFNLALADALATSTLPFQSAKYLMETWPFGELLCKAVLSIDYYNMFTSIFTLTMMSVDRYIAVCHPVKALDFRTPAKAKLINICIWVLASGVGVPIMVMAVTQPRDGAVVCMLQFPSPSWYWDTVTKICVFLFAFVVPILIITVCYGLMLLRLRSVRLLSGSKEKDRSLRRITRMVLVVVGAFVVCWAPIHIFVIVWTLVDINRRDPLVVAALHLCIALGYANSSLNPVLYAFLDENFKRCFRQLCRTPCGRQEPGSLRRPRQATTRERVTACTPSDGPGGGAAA

[5] = target: T5, human δ opioid receptors (hDOR) (Homo sapiens, UniProt P41143); assay: Radioligand competition binding, [3H]DPDPE, hDOR membranes
T5 construct: expressed in transfected cells; host or cells: HN9.10 neuroblastoma cell line, pCDNA3, neomycin-selected clones
T5 sequence (P41143 whole entry): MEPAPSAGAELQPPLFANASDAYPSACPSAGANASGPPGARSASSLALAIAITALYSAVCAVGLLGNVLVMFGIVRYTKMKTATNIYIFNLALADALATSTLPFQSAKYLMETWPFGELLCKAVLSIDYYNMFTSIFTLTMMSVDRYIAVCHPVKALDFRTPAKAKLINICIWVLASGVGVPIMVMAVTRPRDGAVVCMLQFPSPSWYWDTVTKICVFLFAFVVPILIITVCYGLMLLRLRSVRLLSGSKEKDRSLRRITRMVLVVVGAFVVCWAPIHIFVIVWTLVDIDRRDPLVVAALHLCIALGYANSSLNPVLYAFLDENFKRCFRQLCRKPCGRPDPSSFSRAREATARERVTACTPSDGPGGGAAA

[6] = target: T6, Substance P receptors (guinea pig NK1) (Cavia porcellus, UniProt P30547); assay: Guinea pig isolated ileum (GPI) assay with substance P stimulation in presence of 1 μM naloxone
T6 construct: from tissue; host or cells: guinea pig (Hartley) ileum LMMP, 1 μM naloxone present
T6 sequence (P30547 whole entry): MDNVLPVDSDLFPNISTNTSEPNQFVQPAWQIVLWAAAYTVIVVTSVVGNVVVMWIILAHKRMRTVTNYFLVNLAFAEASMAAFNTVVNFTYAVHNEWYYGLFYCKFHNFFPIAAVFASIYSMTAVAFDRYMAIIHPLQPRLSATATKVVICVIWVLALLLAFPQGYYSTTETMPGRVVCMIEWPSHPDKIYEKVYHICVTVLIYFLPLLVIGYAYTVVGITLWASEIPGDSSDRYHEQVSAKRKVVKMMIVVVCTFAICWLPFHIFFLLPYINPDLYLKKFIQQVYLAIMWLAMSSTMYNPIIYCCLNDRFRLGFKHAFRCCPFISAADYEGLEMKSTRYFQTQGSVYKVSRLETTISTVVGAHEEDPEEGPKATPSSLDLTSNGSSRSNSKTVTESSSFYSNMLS

[7] = target: T3, rat μ opioid receptors (rMOR); assay: biochemical; type: biochemical
μ opioid receptors (GPI) = assay: Guinea pig isolated ileum (GPI) assay, opioid agonist;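 further: inhibition of electrically evoked contractions (0.1 Hz, 0.4 msec, supramaximal voltage) in organ baths at 37 °C, contraction height 3 min after each cumulative dose versus the 1 min before dosing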
Procedure: Guinea Pig Isolated Ileum Assay. […] These tissues were tied to gold chains with suture silk and mounted between platinum wire electrodes in 20 mL organ baths at a tension of 1 g and bathed in oxygenated (95:5 O2:CO2) Kreb's bicarbonate buffer at 37° C. and stimulated electrically (0.1 Hz, 0.4 msec duration) at supramaximal voltage. Following an equilibration period, compounds were added cumulatively to the bath in volumes of 14-60 μL until maximum inhibition was reached. A baseline PL-017 was constructed to determine tissue integrity and allow calculation of antagonist activity before opioid analog testing began.
For opioid data analysis, percentage inhibition was calculated using the average tissue contraction height for 1 min preceding the addition of the agonist divided by the contraction height 3 min after exposure to the dose of agonist. […] IC50 and Emax estimates were determined by computerized nonlinear least-squares analysis (the pharmacological statistics package FlashCalc: Dr. Michael Ossipov, University of Arizona, Tucson, Ariz.). […] A50 values represent the mean of not less than 4 tissues. A50 and Emax estimates were determined by computerized nonlinear least-squares analysis (FlashCalc).

[8] = target: T5, human δ opioid receptors (hDOR); assay: [35S]GTP-γ-S binding assay, hDOR; type: biochemical

Work on `CC(C)C[C@H](NC(=O)[C@@H]1CCCN1C(=O)[C@H](Cc1ccccc1)NC(=O)CNC(=O)[C@@H](C)NC(=O)[C@@H](N)Cc1ccc(O)cc1)C(=O)N[C@@H](Cc1c[nH]c2ccccc12)C(=O)N(C)Cc1ccccc1` [TY010, H-Tyr-D-Ala-Gly-Phe-Pro-Leu-Trp-NMe-Bzl] yielded an inhibition at 1 µM (rat NK1 (rNK1) receptor; read-out: Inhibition % at 1 μM, rNK1, [3H]Substance P) of 33 ± 7.6%, an IC50 [1] of 3.16 nM and a Ki [1] of 100 nM. The Ki ([1]; read-out: Ki, hNK1) was 1.6 nM and the logD7.4 [2] was 3.5.
In the case of `CC(C)C[C@H](NC(=O)[C@@H]1CCCN1C(=O)[C@H](Cc1ccccc1)NC(=O)CNC(=O)[C@@H](C)NC(=O)[C@@H](N)Cc1ccc(O)cc1)C(=O)N[C@@H](Cc1c[nH]c2ccccc12)C(=O)OCc1ccccc1` [TY011, H-Tyr-DAla-Gly-Phe-Pro-Leu-Trp-O-Bzl], the IC50 (rat NK1 (rNK1) receptor; Table 6, CHO cell membranes) is reported as 794 nM, the Ki (rat NK1 (rNK1) receptor; read-out: Ki, rNK1) is reported as 270 nM and the IC50 [1] is reported as 200 nM. It also gave a Ki ([1]; read-out: Ki, hNK1) of 100 nM and a logD7.4 [2] of 3.8.
In the case of `CCCC[C@@H]1NC(=O)[C@H](Cc2ccccc2)NC(=O)CNC(=O)[C@H](NC(=O)[C@@H](N)Cc2ccc(O)cc2)CSSC[C@@H](C(=O)N[C@@H](Cc2c[nH]c3ccccc23)C(=O)NCc2cc(C(F)(F)F)cc(C(F)(F)F)c2)NC(=O)[C@@H]2CCCN2C1=O` [TY035, [D-Cys^2, Cys^7]TY027] (HELM PEPTIDE1{Y.[dC].G.F.[Nle].P.C.W.[FC(F)(F)c1cc(CN[*:1])cc(C(F)(F)F)c1]}$PEPTIDE1,PEPTIDE1,2:R3-7:R3$$$V2.0; N-terminus assumed), the half-life at 50 μg/mL [3] is reported as greater than 6 h, the IC50 [4] is reported as 158 nM and the “Ki(μ)/Ki(δ)” value ([4]; Table 20, ratio rMOR Ki / hDOR Ki) is reported as 61. For the same compound, the Ki ([4]; read-out: Ki, rMOR, [3H]DAMGO) was 79 nM, the IC50 (δ opioid receptors (MVD); Table 22, electrically stimulated isolated tissue, read-out: Opioid agonist MVD (δ), IC50) was 85 ± 18 nM and the IC50 (δ opioid receptors (MVD); Table 39, read-out: MVD opioid(delta) agonist (IC50; nM)) was 84.7 nM. The IC50 [5] was 2.51 nM, the Ki ([5]; read-out: Ki, hDOR, [3H]DPDPE) was 1.3 nM and the IC50 (rat NK1 (rNK1) receptor; Table 20, CHO cell membranes) was 100 nM. The “Ki(hNK1)/Ki(rNK1)” value (rat NK1 (rNK1) receptor; Table 20, species ratio) was 30, the Ki (rat NK1 (rNK1) receptor; Table 39, read-out: Affinity rNK1 (Ki; nM)) was 30 nM and the Ki (rat NK1 (rNK1) receptor; read-out: Ki (nM), rNK1, [3H]Substance P, Table 20, CHO cell membranes) was 30 nM. The Kb ([6]; Substance P antagonist, GPI, Ke (nM), Table 22, in the presence of 1 μM naloxone) was 2.2 ± 0.6 nM, the “GPI/LMMP SP Agonist (IC50; nM)” value ([6]; Table 39, at 30 nM) was “none” and the EC50 ([7]; LogEC50, rMOR) was 39.8 nM. For the same compound, the EC50 ([7]; read-out: EC50 (nM), rMOR) was 36 nM, the Emax ([7]; read-out: Emax (%), rMOR) was 41% and the EC50 ([7]; read-out: GTP binding rMOR EC50) was 36 nM. The Emax ([7]; read-out: GTP binding rMOR Emax) was 39%, the IC50 (μ opioid receptors (GPI); Table 22, electrically stimulated isolated tissue, read-out: Opioid agonist GPI (μ), IC50) was 1000 ± 200 nM and the IC50 (μ opioid receptors (GPI); Table 39, read-out: GPI/LMMP opioid(mu) agonist (IC50; nM)) was 1010 nM. It also gave an IC50 [1] of 0.2 nM, a Ki ([1]; read-out: Ki, hNK1) of 0.1 nM and an EC50 ([8]; Table 21, HN9.10 cell, read-out: EC50 (nM), hDOR) of 0.02 nM. The EC50 ([8]; Table 21, logarithm of EC50 (negative), HN9.10 cell, read-out: LogEC50, hDOR (converted)) was 0.0158 nM, the Emax ([8]; Table 21, net total bound/basal binding × 100, read-out: Emax (%), hDOR) was 11% and the EC50 ([8]; Table 39, read-out: GTP binding hDOR EC50) was 0.02 nM. It also gave an Emax ([8]; Table 39, read-out: GTP binding hDOR Emax) of 11% and an Emax ([8]; net total bound/basal binding × 100, read-out: Emax, hDOR, [35S]GTP-γ-S binding) of less than 20%.
